Reference: US7423015B1, “Antihelminthic drugs as a treatment for hyperproliferative diseases” (Board of Regents, The University of Texas System, priority 2001, dated 2008)

Legend:
[1] = system: SiHa; assay: Cell viability, trypan blue cell count assay; format: cell-based; conditions: Homo sapiens, SiHa (cervical, wild-type p53 inactivated by E6), 100% = untreated cells
[2] = system: H460 cells; assay: Induction of apoptosis in H460 (Hoechst 33342, TUNEL, TdT FACS); format: cell-based, human
Method: Cells were seeded onto chamber slides and treated with various reagents, after which cell monolayers were washed twice with ice-cold PBS (pH 7.4). Thereafter, cells were fixed for 5 min at 20° C. in 10% formalin. The washing step with PBS was then repeated once. To stain the nuclei, the cells were incubated for 10 min with 10 μg/ml of Hoechst 33342 and then washed with PBS. The coverslips with the stained cells were mounted in 80% glycerol in PBS containing 1 mg/ml P-phenylenediamine and examined with a Nikon epifluorescence microscope.
Apoptotic assay was done using M30 CytoDEATH apoptotic cell death assay kit (Boehringer Mannnheim). Cells were grown on chamber slides, control and benzimidazole treated cells were stained with Mouse monoclonal antibody (clone M30) as per manufacturer's instructions. […] Flow cytometry was carried out in a fluorescence-activated cell sorter (Epics Elite; Coulter, Inc., Hialeah, Fla.).
The inventors tested the effect of BZ treatment on the human NSCLC cell line H460. […] Chromatin condensation was noted under a fluorescence microscope at 24 h after treatment, by staining the nuclei with Hoechst 33342 fluorescent dye. […] Gross morphological changes associated with a loss of viability were observed by 24 hr post-treatment, whereas signs of apoptosis, detected by DNA staining and TUNEL assays, became apparent by 24 hr after drug treatment.

[3] = system: p53, p21, MDM2, Bcl-2, Cyclin A, Cyclin D, Cdc 2, Bcl-XL, Bax, Rb and Cdk-2; assay: Western blot of proteins of apoptotic pathways in H460 whole-cell extracts; format: cell-based, human; conditions: 0.05 μg/ml for 24 hr
Method: Cells were grown in 6-cm dishes, cultured, and treated as described above. To prepare the whole-cell lysates, the medium was removed and cells were washed twice with ice-cold Tris-buffered saline (TBS) (150 mM NaCl, 10 mM Tris; pH 7.6) and lysed with 0.5 ml of lysis buffer (10 mM Tris, 150 mM NaCl, 1% Triton X-100, 5 mM EDTA, 25 mM glycerphosphate, 1 mM phenylmethylsulphonyl fluoride (PMSF), 2 mM benzamidine, […], and 1 mM sodium orthovanadate) for 15 min. The lysed cells were then transferred to 1.5 ml microtubes, centrifuged at 15,000×g for 10 min at 4° C., and the supernatants collected mixed with Laemmli's sample buffer and subjected to western blot analysis as described elsewhere (Nare et al., 1994). Blots were probed with anti-p53 monoclonal antibody Bp53-12 (Santa Cruz Biotechnology, Inc.) and the immunocomplex was detected by the Enhanced Chemiluminescence kit according to the manufacturer's directions (Amersham).
To rule out the possibility that FZ and MZ have an effect on other proteins known to have a role in various apoptotic pathways, the inventors evaluated the effect of these drugs on a panel of such proteins. […] Specifically, the levels of these proteins were evaluated by Western blot analyses before and after exposure to 0.05 μg/ml FZ or MZ for 24 hr using whole-cell extracts. […] The protein level of the phosphorylated form of Rb also remained unchanged after treatment.

[4] = system: p21/WAF1 transcript; assay: Northern blot analysis in H460 cells; format: cell-based, human; conditions: at the time the p53 level peaked
Method: (§1) Total RNA was isolated from the subconfluent cultures using the guanidinium thisocyanate method (Lacey, 1988). After this 20 μg of the RNA was electrophoresed in a denaturing 1.2% agarose/morpholinepropanesulfonic acid (MOPS)-formaldehyde gel, transferred onto a nitrocellulose membrane, and hybridized to a ^32P-radiolabeled p53 cDNA probe, as described elsewhere (Lubiga and Prichard, 1990). The ^32P-labeled probes were generated using random primers (>8×10^8 cpm/μg). Blots were washed at 65° C. in 2× standard saline citrate (SSC) for 30 min and then washed twice at 60° C. in 0.1% sodium dodecyl sulfate (SDS) and 0.1×SSC. The cDNA probes used were 1.2-kb human p53 cDNA and an 800-bp fragment of human p21 cDNA.
(§2) Cell extracts were prepared from H460 cells exposed to 0.05 μg/ml FZ or MZ for various durations (1 to 24 hr). The effect of FZ and MZ on the nuclear accumulation of p53 appeared to be gradual and was not significant within the first hour of exposure. […] The appearance of p53 in response to drug treatment also coincided with the initiation of apoptosis, which was detectable by 24 hr, as well as shown earlier by TdT FACS analysis. […] Total RNA was extracted and […] was used for the analysis. p53 protein was detected by immunoblot analysis.

[5] = system: p53 mRNA; assay: Northern blot analysis in H460 cells; format: cell-based, human; conditions: 0.05 μg/ml, 24 hr
Method: as §1, §2

[6] = system: p53 protein; assay: p53 protein stability, pulse-chase with cycloheximide in H460; format: cell-based, human
Method: Cells were treated with 0.05 μg/ml fenbendazole or mebendazole for 24 h. After this, control (mock-treated) and drug-treated H460 cells were incubated with 10 μg/ml cycloheximide in drug-free medium for different times and then processed to obtain total cell extracts. Finally, samples were denatured by boiling them in SDS-loading buffer (100 mM Tris, pH 6.8; 2% SDS; 0.1% bromphenol blue; 10% glycerol; 25 μM β-mercaptoethanol) and loaded onto a 10% SDS-polyacrylamide gel. Blots were probed with anti-p53 monoclonal antibody B p53-12 (Santa Cruz Biotechnology, Inc.) and anti-actin monoclonal antibody (Amersham). The immunocomplexes were detected using the Enhanced Chemiluminescence kit according to the manufacturer's directions as described above. The intensities of the bands were quantitated with a PhosphoImager using ImageQuant™ Software (Molecular Dynamics, Sunnyvale, Calif.).
H460 cells were treated with 0.05 μg/ml FZ for 24 hr, and then both untreated control and treated cells were washed with PBS and treated with 24 μg/ml cyclohexamide. After that, cells were harvested at different times. The total cell protein was extracted and analyzed on a 10% polyacrylamide-gel, followed by Western blot analysis using p53 and actin monoclonal antibodies. […]
Data from the pulse-chase experiments were quantitated with a PhosphoImager using ImageQuant™ software. […]

| Structure (SMILES) | viability at 0.05 µg/mL [1] [%] | apoptotic effect on H460 cells [2] | levels of Bcl-2, Cyclin A, Cyclin D, Cdc 2, Bcl-XL, Bax, Rb and Cdk-2 [3] | levels of nuclear p53, p21 and MDM2 [3] | level of the p21/WAF1 transcript [4] | p53 mRNA levels [5] | effect on half-life of the p53 protein [6] |
| --- | --- | --- | --- | --- | --- | --- | --- |
| COC(=O)Nc1nc2ccc(C(=O)c3ccccc3)cc2[nH]1 [Mebendazole, Methyl 5-benzoylbenzimidazole-2-carbamate] | 91.3 ± 8.6 | apoptotic effect | no changes | enhanced | significantly increased | no significant changes | prolong the half-life |
| COC(=O)Nc1nc2ccc(Sc3ccccc3)cc2[nH]1 [Fenbendazole, methy 5-(phenylthio)-2-benzimidazole-2-carbamate] | 94.5 ± 7.4 | apoptotic effect | no changes | enhanced | significantly increased | no significant changes | prolong the half-life |
